#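 Following 48 hours of exposure in 96-well plates, responses at five concentrations were used to interpolate endpoints linearly. GI50 marks 50% less growth. TGI is the concentration that stops growth completely.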
# Assays:
# Experiment in all cases: DTP human tumour cell line panel, 48 h
# [1] = system: ACHN renal
# [2] = system: HOP-62 NSCLC
# [3] = system: HT29 colon
# [4] = system: IGROV1 ovarian
# [5] = system: TK-10 renal
# [6] = system: NCI-H522 lung
# [7] = system: NCI-H460 lung
# [8] = system: HCT-15 colon
# [9] = system: CAKI-1 renal
# [10] = system: NCI/ADR-RES ovarian
# [11] = system: UACC-62 melanoma
# [12] = system: MDA-MB-435
# [13] = system: OVCAR-5 ovarian
# [14] = system: SK-OV-3 ovarian
# [15] = system: SR leukemia
# [16] = system: SF-539 CNS
# [17] = system: COLO 205 colon
# [18] = system: OVCAR-4 ovarian
# [19] = system: MALME-3M melanoma
# [20] = system: UO-31 renal
# [21] = system: EKVX NSCLC
# [22] = system: MCF7 breast
# [23] = system: HS 578T breast
# [24] = system: PC-3 prostate
# [25] = system: UACC-257 melanoma
# [26] = system: MDA-MB-231 breast
# [27] = system: OVCAR-8 ovarian
# [28] = system: OVCAR-3 ovarian
smiles,measurement,setting,value
Cc1ccc(S(=O)(=O)NCCCNc2nc(Nc3ccc(N4CCN(C)CC4)cc3)nc3ccsc23)cc1,TGI,[1],25.2 µM
same,GI50,[2],14.8 µM
same,TGI,[2],30.5 µM
same,GI50,[3],4.4 µM
same,TGI,[3],18.4 µM
same,GI50,[4],7.35 µM
same,TGI,[4],21.8 µM
same,GI50,[5],17.7 µM
same,TGI,[5],40.3 µM
same,GI50,[6],12.5 µM
same,TGI,[6],26.2 µM
same,GI50,[7],13 µM
same,TGI,[7],27.8 µM
same,GI50,[8],2.07 µM
same,TGI,[8],5.54 µM
same,GI50,[9],12.8 µM
same,TGI,[9],25.5 µM
same,GI50,[10],15.5 µM
same,TGI,[10],41.9 µM
same,GI50,[11],11.5 µM
same,TGI,[11],23.6 µM
same,GI50,[12],9.14 µM
same,TGI,[12],21.3 µM
same,GI50,[13],11.9 µM
same,TGI,[13],25.9 µM
same,GI50,[14],27.1 µM
same,TGI,[14],77.8 µM
same,GI50,[15],2.84 µM
same,TGI,[15],> 100 µM
same,GI50,[16],2.16 µM
same,TGI,[16],5.78 µM
same,GI50,[17],13.1 µM
same,TGI,[17],29.8 µM
same,GI50,[18],10.3 µM
same,TGI,[18],44.2 µM
same,GI50,[19],1.79 µM
same,TGI,[19],3.42 µM
same,GI50,[20],7.94 µM
same,TGI,[20],23.8 µM
same,GI50,[21],11.6 µM
same,TGI,[21],28.7 µM
same,GI50,[22],3.52 µM
same,TGI,[22],13.8 µM
same,GI50,[23],5.09 µM
same,TGI,[23],26.7 µM
same,GI50,[24],5.55 µM
same,TGI,[24],21.6 µM
same,GI50,[25],2.19 µM
same,TGI,[25],5.83 µM
same,GI50,[26],3.92 µM
same,TGI,[26],18.7 µM
same,GI50,[27],10.9 µM
same,TGI,[27],29.7 µM
same,GI50,[28],10.2 µM
same,TGI,[28],42.1 µM

# From PubChem BioAssay (NCI)
